Assays:
[1] = tested on: 293 T cells; test: In vitro cell killing by calicheamicin and linker-drug constructs (CellTiter-Glo, 72 hours); format: cell-based
Procedure: (§1) 293 T cells were used along with MES SA and MES SA/Dx cells which comprise uterine sarcoma lines purchased from ATCC. The MES SA/Dx cell line was generated from MES SA cells cultured with increasing amounts of doxorubicin resulting in 100-fold resistance to doxorubicin and upregulation of MDR1.
(§2) The cells were cultured in a T75 flask to ˜50-80% confluency and harvested with trypsin into a single cell suspension. Five hundred (500) cells per well were seeded in tissue culture plates in 50 μL/well culture media and incubated at 37° C. for 18-24 hours. Compounds were diluted as 400× final desired concentrations in DMSO. Serial dilutions in DMSO were then diluted in culture media for a final DMSO concentration of 0.25% and 50 μL/well of the final dilution was added to the cells (Vf=100 μL). Upon plating and treatment, cells were returned to the incubator for an additional 72 hours. CellTiter-Glo reagent was prepared per manufacturer's instructions and added at 100 μL/well to the cultures. CellTiter-Glo allows for relative enumeration of metabolically active cells by quantifying intracellular ATP concentrations. After 5 minutes of incubation with CellTiter-Glo at ambient room temperature, 125 μL/well of the Cell Titer Glo/cell lysate solution was transferred into black assay plates, which were then read in a luminometer within 30 minutes.

[2] = tested on: MES SA/Dx cells (doxorubicin-resistant uterine sarcoma line, MDR1 upregulated); test: as above; format: cell-based
Procedure: as §1, §2

[3] = tested on: MES SA cells (uterine sarcoma line); test: as above; format: cell-based; conditions: for IC50: MES SA
Procedure: as §1, §2

[4] = molecular target: Cathepsin B (Homo sapiens, UniProt P07858); test: Cathepsin B cleavage assay of dipeptide linker-drug constructs; format: biochemical; conditions: NAC-quenched linker-drug, 2.5, 5 or 10 mol % enzyme, pH 6.0, room temperature, 15-90 min
Procedure: Initially linker drug constructs from Examples 3 and 4 were treated with IM N-acetyl cysteine solution to quench maleimide functionality prior to the cathepsin B treatment. Excess of N-acetyl cysteine is used to activate the Cathepsin B.
More specifically quenched linker-drugs in 1:1 acetonitrile:water solution (20 ul) were diluted with 20 mM HisC1 pH 6.0 to a final acetonitrile content of 10% v/v ([…]). Cathepsin B enzyme was added to result in 2.5 mol %, 5 mol % or 10 mol % enzyme relative to the linker-drug. Reactions were vortexed gently and kept at room temperature. At the time points of 15, 30, 60 and 90 min 3 ul of the reaction mixture were placed into the total recovery vial containing 5 uL Tris pH 9, 2 uL 100 mM […] (DHAA), 15 ul water. The samples were analyzed using Analytical Method B set forth above. Conversion was calculated based on the decrease of the starting material peak area.

[5] = LINKER DRUG IVK (1000 nM start, 10X dilutions)
[6] = SMALL MOLECULE IVK (10 nM start, 5X dilutions)
[7] = SMALL MOLECULE IVK (10 nM start, 5X dilutions), listed as N acetyl calicheamicin (lot B)

SMILES | IC50 [1, 5] | IC50 [2, 5] | IC50 [3, 5] | cleavage by Cathepsin B [4] | rate of cleavage by Cathepsin B, compared between constructs [4] | IC50 [1, 6] | IC50 [1, 7] | IC50 [2, 6] | IC50 [2, 7] | IC50 [3, 6] | IC50 [3, 7] | derived IC50 values, range of activity ([3]; summary of Table 5)
CCN(C(C)=O)[C@H]1CO[C@@H](O[C@H]2[C@H](O[C@H]3C#C/C=C\C#C[C@]4(O)CC(=O)C(NC(=O)OC)=C3/C4=C\CSSC(C)(C)CCC(=O)NCCNC(=O)OCc3ccc(NC(=O)[C@H](CCCNC(N)=O)NC(=O)[C@@H](NC(=O)CCCCCN4C(=O)C=CC4=O)C(C)C)cc3)O[C@H](C)[C@@H](NO[C@H]3C[C@H](O)[C@H](SC(=O)c4c(C)c(I)c(O[C@@H]5O[C@@H](C)[C@H](O)[C@@H](OC)[C@H]5O)c(OC)c4OC)[C@@H](C)O3)[C@H]2O)C[C@@H]1OC [Val-Cit calicheamicin] | 46 nM | > 1000 nM | 6.3 nM | effectively cleaved | cleaved more rapidly than the Val-Ala dipeptidyl construct | – | – | – | – | – | – | –
CCN(C(C)=O)[C@H]1CO[C@@H](O[C@H]2[C@H](O[C@H]3C#C/C=C\C#C[C@]4(O)CC(=O)C(NC(=O)OC)=C3/C4=C\CSSSC)O[C@H](C)[C@@H](NO[C@H]3C[C@H](O)[C@H](SC(=O)c4c(C)c(I)c(O[C@@H]5O[C@@H](C)[C@H](O)[C@@H](OC)[C@H]5O)c(OC)c4OC)[C@@H](C)O3)[C@@H]2O)C[C@@H]1OC [N acetyl calicheamicin (lot A), N-acetyl calicheamicin γ 1] | – | – | – | – | – | 0.0409 nM | 0.052 nM | 30.6 nM | 17.1 nM | 0.0308 nM | 0.0693 nM | picomolar range
CCN(C(C)=O)[C@H]1CO[C@@H](O[C@H]2[C@H](O[C@H]3C#C/C=C\C#C[C@]4(O)CC(=O)C(NC(=O)OC)=C3/C4=C\CSSC(C)(C)CCC(=O)NCCNC(=O)OCc3ccc(NC(=O)[C@H](C)NC(=O)[C@@H](NC(=O)CCCCCN4C(=O)C=CC4=O)C(C)C)cc3)O[C@H](C)[C@@H](NO[C@H]3C[C@H](O)[C@H](SC(=O)c4c(C)c(I)c(O[C@@H]5O[C@@H](C)[C@H](O)[C@@H](OC)[C@H]5O)c(OC)c4OC)[C@@H](C)O3)[C@H]2O)C[C@@H]1OC [Val-Ala calicheamicin] | – | – | – | effectively cleaved | – | – | – | – | – | – | – | –

From US20180133337A1, “CALICHEAMICIN CONSTRUCTS AND METHODS OF USE” (priority 2015, published 2018)
